# Measured values as given in PMC5271319, “Identification and Characterization of a 25 kDa Protein That Is Indispensable for the Efficient Saccharification of Eisenia bicyclis in the Digestive Fluid of Aplysia kurodai” (PLoS ONE, 2017).
# Biological target: T1, EHEP (Eisenia hydrolysis enhancing protein, 25 kDa) (Aplysia kurodai, UniProt A0A1B4XTR1)
# T1 construct: native protein purified from digestive fluid; signal peptide 1-16 predicted to be removed; 25 kDa monomer
# T1 sequence (A0A1B4XTR1 17-229): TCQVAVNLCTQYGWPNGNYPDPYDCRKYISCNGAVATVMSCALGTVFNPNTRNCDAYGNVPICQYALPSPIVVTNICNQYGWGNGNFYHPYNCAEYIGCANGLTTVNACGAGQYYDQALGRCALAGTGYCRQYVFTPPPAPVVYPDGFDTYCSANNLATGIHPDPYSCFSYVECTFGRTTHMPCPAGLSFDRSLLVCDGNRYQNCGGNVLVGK
# Assay: co-precipitation, SDS-PAGE of precipitate
# Format: binding
# Settings: 50 and 100 μg in 0.1 ml; 50 mM acetate pH 5.5, 0.1 M NaCl, 10 mM CaCl2; 25 °C, 90 min
row,SMILES,"co-precipitation, SDS-PAGE of precipitate"
1,O=C(O)c1cc(O)c(O)c(O)c1 [gallic acid],EHEP was precipitated by phloroglucinol and gallic acid
2,"Oc1cc(O)cc(O)c1 [phloroglucinol, 1,3,5-trihydroxybenzene]",EHEP was precipitated by phloroglucinol and gallic acid
